The nature of data set [1]: Solubility test, Test Method 2 (sample approx. 300 μg/mL, shaken 10 minutes at room temperature, filtrate quantified by HPLC). To be noted: approx. 300 μg/mL added, in terms of free form. Type of data set: physicochemical. The procedure:
JP1 (Japanese Pharmacopoeia 1st Fluid for disintegration test): manufactured by Nacalai Tesque Inc.
JP2 (Japanese Pharmacopoeia 2nd Fluid for disintegration test): manufactured by Nacalai Tesque Inc.
JP2+TC: Add sodium taurocholate to Japanese Pharmacopoeia 2nd Fluid for disintegration test to obtain a concentration of 15 mM.
FaSSIF (artificial intestinal fluid (fasted state)): To 1 L of water, 3 mmol of sodium taurocholate, 0.75 mmol of lecithin, 3.9 g of potassium dihydrogen phosphate, and 7.7 g of potassium chloride are added, and a pH thereof is adjusted to approximately 6.5 using sodium hydroxide.
FeSSIF (artificial intestinal fluid (fed state)): To 1 L of water, 15 mmol of sodium taurocholate, 3.75 mmol of lecithin, 8.65 g of acetic acid, and 15.2 g of potassium chloride are added, and a pH is adjusted to approximately 5.0 using sodium hydroxide.
Test Method 2: Test Method for p-Toluenesulfonate and 1-Hydroxy-2-Naphthoate
Into a 10 mL centrifuge tube, 1 to 1.3 mg of a sample was weighed, and each dissolving solution (see below) was added thereto to be approximately 300 μg/mL. In order to uniformly disperse the sample in the dissolving solution, the sample was irradiated with ultrasonic waves in a water tank for a short time, and then vigorously shaken at room temperature for 10 minutes using a shaker SA-31 manufactured by Yamato Scientific Co., Ltd. The solution after shaken was filtered with a filter, and a concentration of the compound in filtrate was quantified by HPLC. The same dissolving solution as in Test Method 1 was used.
(Measurement condition 2 using HPLC: Measurement conditions of p-toluenesulfonate and 1-hydroxy-2-naphthoate)
Equipment: LC-1260 manufactured by Agilent Technologies
Mobile phase: A: 0.1% aqueous perchloric acid, B: methanol
Column: YMC-Triart C18 S-3 μm (2.0 mm×50 mm)
Column temperature: 40° C.
Detection wavelength: 254 nm
Ex indicates Example Number to be described later.

Data set [2] is described as follows: Solubility test, Test Method 1 (sample approx. 150 μg/mL, shaken 10 minutes at room temperature, filtrate quantified by HPLC). The class given is physicochemical. The note with it: approx. 150 μg/mL added, in terms of free form. How it is done:
Test Method of Free Form, Hydrochloride, Hydrobromide, Sulfate, Methanesulfonate, and Benzenesulfonate […] In order to uniformly disperse the sample in the dissolving solution, the sample was irradiated with ultrasonic waves in a water tank for a short time, and then vigorously shaken at room temperature for 10 minutes using a shaker SA-31 manufactured by Yamato Scientific Co., Ltd. The solution after shaken was filtered with a filter, and a concentrations of the compound in filtrate was quantified by HPLC. The following was used as the dissolving solution. […] JP2 (Japanese Pharmacopoeia 2nd Fluid for disintegration test): manufactured by Nacalai Tesque Inc. JP2+TC: Add sodium taurocholate to Japanese Pharmacopoeia 2nd Fluid for disintegration test to obtain a concentration of 15 mM. FaSSIF (artificial intestinal fluid (fasted state)): […] FeSSIF (artificial intestinal fluid (fed state)): […] Measurement conditions of free form, hydrochloride, hydrobromide, sulfate, methanesulfonate, and benzenesulfonate) Equipment: LC-1260 manufactured by Agilent Technologies Mobile phase: A: 0.01 M aqueous solution of ammonium acetate, B: 0.01 M methanol solution of ammonium acetate Flow rate: 0.3 mL/min Column: Develosil Combi-RP-5 5 μm (2.0 mm×50 mm) Column temperature: 40° C. […] Ex indicates Example Number to be described later.

Setting [3] is: pH 1.2, simulated gastric fluid, thermodynamic from solid, JP1 (Japanese Pharmacopoeia 1st Fluid for disintegration test), 10 minutes shaking, read-out: Solubility JP1.
Setting [4] is: pH 5, thermodynamic from solid, FeSSIF (artificial intestinal fluid, fed state), pH approx. 5.0, 10 minutes shaking, read-out: Solubility FeSSIF.
[5] abbreviates: pH 6.5, thermodynamic from solid, FaSSIF (artificial intestinal fluid, fasted state), pH approx. 6.5, 10 minutes shaking, read-out: Solubility FaSSIF.
Setting [6] is: pH 6.8, fassgf or other biorelevant, thermodynamic from solid, JP2 with 15 mM sodium taurocholate, 10 minutes shaking, read-out: Solubility JP2 + TC.
[7] abbreviates: pH 6.8, aqueous buffer, thermodynamic from solid, JP2 (Japanese Pharmacopoeia 2nd Fluid for disintegration test), 10 minutes shaking, read-out: Solubility JP2.

Values after ≈ are worked out from the molar mass of the structure shown.

With `Cc1ccc(S(=O)(=O)O)cc1.Cc1nsc(-c2nnc3n2CCN(C(=O)c2ccc(F)cc2)[C@@H]3C)n1` [Example 5, (4-fluorophenyl)[(8R)-8-methyl-3-(3-methyl-1,2,4-thiadiazol-5-yl)-5,6-dihydro[1,2,4]triazolo[4,3-a]pyrazin-7(8H)-yl]methanone p-toluenesulfonate], the solubility at 10 min was more than 100 µg/mL in data set [1] (setting [3]); more than 100 µg/mL in data set [1] (setting [4]); more than 100 µg/mL in data set [1] (setting [5]); more than 100 µg/mL in data set [1] (pH 6.8, fassgf or other biorelevant, thermodynamic from solid, JP2 (Japanese Pharmacopoeia 2nd Fluid for disintegration test), 10 minutes shaking, read-out: Solubility JP2); more than 100 µg/mL in data set [1] (setting [6]).
Consider `Cc1nsc(-c2nnc3n2CCN(C(=O)c2ccc(F)cc2)[C@@H]3C)n1.O=C(O)c1ccc2ccccc2c1O` [Example 8, (4-fluorophenyl)[(8R)-8-methyl-3-(3-methyl-1,2,4-thiadiazol-5-yl)-5,6-dihydro[1,2,4]triazolo[4,3-a]pyrazin-7(8H)-yl]methanone 1-hydroxy-2-naphthoate], for which the “Solubility FaSSIF” value in data set [1] (FaSSIF (artificial intestinal fluid, fasted state), pH approx. 6.5, 10 minutes shaking) was more than 100 µg/mL. In addition, the “Solubility FeSSIF” value in data set [1] (FeSSIF (artificial intestinal fluid, fed state), pH approx. 5.0, 10 minutes shaking) was more than 100 µg/mL. In addition, the “Solubility JP1” value in data set [1] (JP1 (Japanese Pharmacopoeia 1st Fluid for disintegration test), 10 minutes shaking) was found to be 58.9 µg/mL. Further, the “Solubility JP2” value in data set [1] (JP2 (Japanese Pharmacopoeia 2nd Fluid for disintegration test), 10 minutes shaking) is more than 100 µg/mL. Further, the “Solubility JP2 + TC” value in data set [1] (JP2 with 15 mM sodium taurocholate, 10 minutes shaking) is more than 100 µg/mL.
In the case of `Br.Cc1nsc(-c2nnc3n2CCN(C(=O)c2ccc(F)cc2)[C@@H]3C)n1` [Example 2, (4-fluorophenyl)[(8R)-8-methyl-3-(3-methyl-1,2,4-thiadiazol-5-yl)-5,6-dihydro[1,2,4]triazolo[4,3-a]pyrazin-7(8H)-yl]methanone hydrobromide], the solubility at 10 min in data set [2] (setting [3]), in data set [2] (setting [4]), in data set [2] (setting [5]), in data set [2] (setting [7]) and in data set [2] (setting [6]) was more than 100 µg/mL in each case.
Take `Cc1nsc(-c2nnc3n2CCN(C(=O)c2ccc(F)cc2)[C@@H]3C)n1.O=S(=O)(O)c1ccccc1` [Example 7, (4-fluorophenyl)[(8R)-8-methyl-3-(3-methyl-1,2,4-thiadiazol-5-yl)-5,6-dihydro[1,2,4]triazolo[4,3-a]pyrazin-7(8H)-yl]methanone benzenesulfonate]: the solubility at 10 min in data set [2] (setting [3]), in data set [2] (setting [4]), in data set [2] (setting [5]), in data set [2] (setting [7]) and in data set [2] (setting [6]) was more than 100 µg/mL in each case.
For the compound `CS(=O)(=O)O.Cc1nsc(-c2nnc3n2CCN(C(=O)c2ccc(F)cc2)[C@@H]3C)n1` [Example 6, (4-fluorophenyl)[(8R)-8-methyl-3-(3-methyl-1,2,4-thiadiazol-5-yl)-5,6-dihydro[1,2,4]triazolo[4,3-a]pyrazin-7(8H)-yl]methanone methanesulfonate], the solubility at 10 min in data set [2] (setting [3]), in data set [2] (setting [4]), in data set [2] (setting [5]), in data set [2] (setting [7]) and in data set [2] (setting [6]) was more than 100 µg/mL throughout.
Regarding `Cc1nsc(-c2nnc3n2CCN(C(=O)c2ccc(F)cc2)[C@@H]3C)n1` [Compound A, (4-fluorophenyl)[(8R)-8-methyl-3-(3-methyl-1,2,4-thiadiazol-5-yl)-5,6-dihydro[1,2,4]triazolo[4,3-a]pyrazin-7(8H)-yl]methanone, reference compound], the solubility at 10 min in data set [2] (setting [3]) is 66.6 µg/mL (≈ 186 µM); in data set [2] (setting [4]), 31.9 µg/mL (≈ 89 µM); in data set [2] (setting [5]), 36.5 µg/mL (≈ 102 µM); in data set [2] (setting [7]), 65.4 µg/mL (≈ 182 µM); in data set [2] (setting [6]) it was 82.9 µg/mL.
Turning to `Cc1nsc(-c2nnc3n2CCN(C(=O)c2ccc(F)cc2)[C@@H]3C)n1.Cl` [Example 1, (4-fluorophenyl)[(8R)-8-methyl-3-(3-methyl-1,2,4-thiadiazol-5-yl)-5,6-dihydro[1,2,4]triazolo[4,3-a]pyrazin-7(8H)-yl]methanone hydrochloride], the solubility at 10 min in data set [2] (setting [3]), in data set [2] (setting [4]), in data set [2] (setting [5]), in data set [2] (setting [7]) and in data set [2] (setting [6]) was more than 100 µg/mL throughout.
Consider `Cc1nsc(-c2nnc3n2CCN(C(=O)c2ccc(F)cc2)[C@@H]3C)n1.O=S(=O)(O)O` [Example 3, (4-fluorophenyl)[(8R)-8-methyl-3-(3-methyl-1,2,4-thiadiazol-5-yl)-5,6-dihydro[1,2,4]triazolo[4,3-a]pyrazin-7(8H)-yl]methanone sulfate], for which the solubility at 10 min in data set [2] (setting [3]), in data set [2] (setting [4]), in data set [2] (setting [5]), in data set [2] (setting [7]) and in data set [2] (setting [6]) was more than 100 µg/mL in each case.

The values above are taken from patent publication US20210094955A1, “SALT AND CRYSTAL OF TRIAZOLOPYRAZINE DERIVATIVE” (priority 2017, published 2021).
